The values that follow come from patent US10155004B2, “17-hydroxy-17-pentafluoroethyl-estra-4,9(10)-dien-11-aryl derivatives, method of production thereof and use thereof for the treatment of diseases” (BAYER INTELLECTUAL PROPERTY GMBH, priority 2009, dated 2018).

Data set [1] is described as follows: Metabolic stability in human liver microsomes (HLM). The class given is in vitro ADME. To be noted: from HLM half-life, well-stirred model, phase I reactions; 1 μM, 0.5 mg/ml protein. As to the method: EXAMPLE 18 METABOLIC STABILITY OF (11β,17β)-17-HYDROXY-11[4-(METHYLSULPHONYL)PHENYL]-17-(PENTAFLUOROETHYL)ESTRA-4,9-DIEN-3-ONE AND (11β,17β)-17-HYDROXY-11-[4′-(METHYLSULPHONYL)-BIPHENYL-4-YL]-17-(PENTAFLUOROETHYL)ESTRA-4,9-DIEN-3-ONE IN HUMAN LIVER MICROSOMES (HLM)
Isolated human liver microsomes (HLM) were used for assessing the metabolic stability of compounds of general formula I.
Incubations were carried out with 2.4 ml of HLM solution (0.5 mg/ml protein content), 30 μl of the test compound (final concentration 1 μM) and 0.6 ml of the cofactor mixture (=NADPH-generating system of 3 IU glucose-6-phosphate dehydrogenase, 14.6 mg glucose-6-phosphate, 1.2 mg NADP) at 37° C. in 100 mM phosphate buffer at pH 7.4. Samples are taken at 6 time points (2-60 min), precipitated with an equal volume of methanol and the recovery of the test substances used in the supernatant is determined by LC-MS/MS analysis. The intrinsic clearance of the substance in the liver microsome preparation can be calculated from the half-life found for the breakdown of the substance. Based on this, together with various physiological characteristics according to the well-stirred model, it is then possible to predict a (metabolic) in vivo clearance with respect to phase I reactions. […]
(Microsomes from liver hold many membrane-bound enzymes, among them those of drug oxidation.)

The target in data set [2] is T1, human progesterone receptor A (Homo sapiens, UniProt P06401).
T1 construct: expressed in transfected cells; host or cells: SK-N-MC human neuroblastoma cells, stably transfected
T1 sequence (P06401 1-769 isoform P06401-2): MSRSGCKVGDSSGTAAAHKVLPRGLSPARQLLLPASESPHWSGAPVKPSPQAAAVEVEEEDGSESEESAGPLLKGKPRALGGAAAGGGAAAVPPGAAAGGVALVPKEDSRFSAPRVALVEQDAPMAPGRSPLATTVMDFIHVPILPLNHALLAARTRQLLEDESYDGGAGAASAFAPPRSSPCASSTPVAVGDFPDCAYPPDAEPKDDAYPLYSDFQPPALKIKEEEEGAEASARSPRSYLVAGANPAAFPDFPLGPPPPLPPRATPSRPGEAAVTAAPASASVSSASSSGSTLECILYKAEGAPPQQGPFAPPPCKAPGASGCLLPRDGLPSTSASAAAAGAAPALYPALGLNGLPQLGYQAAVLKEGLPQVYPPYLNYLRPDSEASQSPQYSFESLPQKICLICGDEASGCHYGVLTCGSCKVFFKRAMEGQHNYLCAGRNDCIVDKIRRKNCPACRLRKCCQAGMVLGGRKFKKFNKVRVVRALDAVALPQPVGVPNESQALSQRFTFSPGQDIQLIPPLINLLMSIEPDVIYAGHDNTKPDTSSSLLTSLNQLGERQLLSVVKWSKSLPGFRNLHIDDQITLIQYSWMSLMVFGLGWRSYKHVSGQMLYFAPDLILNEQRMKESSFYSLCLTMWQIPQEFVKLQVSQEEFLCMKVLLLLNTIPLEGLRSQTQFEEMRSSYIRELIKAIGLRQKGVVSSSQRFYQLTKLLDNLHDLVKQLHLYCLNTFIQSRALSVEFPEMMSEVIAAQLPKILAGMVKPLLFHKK
As to the kind of experiment: Progesterone receptor-antagonistic action in stably transfected SK-N-MC cells, MTV-LUC reporter (PR-A). Format: cell-based. The following applies: antagonism of 0.1 nmol/l promegestone, 24 hours, LUC reporter, read-out: Progesterone receptor A (PR-A) Potency IC50. As to the method: (§1) EXAMPLE 16 PROGESTERONE RECEPTOR-ANTAGONISTIC ACTION IN STABLE TRANSFECTANTS OF HUMAN NEUROBLASTOMA CELLS (SK-N-MC CELLS) WITH THE HUMAN PROGESTERONE A OR PROGESTERONE B RECEPTOR AND AN MTV-LUC REPORTER CONSTRUCT
(§2) SK-N-MC cells (human neuroblastoma cells), which have been stably transfected with plasmids, which express the human progesterone receptor B (pRChPR-B-neo) or the human progesterone receptor A (pRChPR-A-neo) and a reporter construct (pMMTV-LUC), were incubated for 24 hours either in the absence (negative control) or in the presence of increasing amounts of the respective test compound (0.01 nmol/l, 0.1 nmol/l 1 nmol/l, 10 nmol/l, 100 nmol/l and 1 μmol/l), in order to determine the agonistic efficacy. As positive control of reporter gene induction, the cells were treated with the synthetic gestagen promegestone (0.01 nmol/l, 0.1 nmol/l, 1 nmol/l, 10 nmol/l, 100 nmol/l and 1 μmol/l). For determination of the antagonistic activity, the cells were treated with 0.1 nmol/1 promegestone and additionally with increasing amounts of the respective test compound (0.01 nmol/l, 0.1 nmol/l, 1 nmol/l, 10 nmol/l, 100 nmol/l and 1 μmol/l). The activity of the LUC reporter gene (LUC=luciferase) was determined in the cell lysates and was measured as RLU (relative light units). All measured values are given as percentage efficacy and as EC50 or IC50 concentrations.
(§3) 11β-(4-Acetylphenyl)-20,20,21,21,21-pentafluoro-17-hydroxy-19-nor-17α-pregna-4,9-dien-3-one and 20,20,21,21,21-pentafluoro-17-hydroxy-11β-[4-(hydroxyacetyl)phenyl]-19-nor-17α-pregna-4,9-dien-3-one, very potent and therefore preferred examples from WO98/34947 and WO2008/058767, were tested as comparative compounds along with the test compound.

Data set [3] has as its target T2, human progesterone receptor B (Homo sapiens, UniProt P06401).
T2 construct: expressed in transfected cells; host or cells: SK-N-MC human neuroblastoma cells, stably transfected
T2 sequence (P06401 1-933): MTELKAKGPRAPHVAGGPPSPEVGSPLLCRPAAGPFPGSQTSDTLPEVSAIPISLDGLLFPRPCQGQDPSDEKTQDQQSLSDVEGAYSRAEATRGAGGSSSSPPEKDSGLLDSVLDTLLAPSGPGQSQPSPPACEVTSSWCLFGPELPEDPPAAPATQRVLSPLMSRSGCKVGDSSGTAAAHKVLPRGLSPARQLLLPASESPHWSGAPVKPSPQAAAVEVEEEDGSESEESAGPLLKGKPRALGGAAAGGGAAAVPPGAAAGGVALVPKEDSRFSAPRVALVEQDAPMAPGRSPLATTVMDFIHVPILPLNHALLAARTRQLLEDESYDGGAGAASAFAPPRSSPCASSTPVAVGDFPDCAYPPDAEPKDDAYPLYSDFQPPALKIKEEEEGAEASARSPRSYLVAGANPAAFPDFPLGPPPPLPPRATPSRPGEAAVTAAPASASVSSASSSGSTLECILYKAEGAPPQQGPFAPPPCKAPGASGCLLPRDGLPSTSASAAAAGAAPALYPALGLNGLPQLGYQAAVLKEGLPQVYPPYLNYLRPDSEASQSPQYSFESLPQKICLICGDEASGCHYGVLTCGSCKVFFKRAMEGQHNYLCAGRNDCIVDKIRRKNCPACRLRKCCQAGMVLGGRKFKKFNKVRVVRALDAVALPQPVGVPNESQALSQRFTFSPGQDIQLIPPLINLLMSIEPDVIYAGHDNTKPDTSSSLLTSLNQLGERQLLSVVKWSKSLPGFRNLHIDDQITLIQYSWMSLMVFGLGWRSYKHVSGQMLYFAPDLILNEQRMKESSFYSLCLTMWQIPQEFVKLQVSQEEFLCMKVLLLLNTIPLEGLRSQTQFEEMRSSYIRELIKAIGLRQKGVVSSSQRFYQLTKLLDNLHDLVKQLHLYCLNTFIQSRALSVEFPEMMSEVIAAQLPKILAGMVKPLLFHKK
As to the kind of experiment: Progesterone receptor-antagonistic action in stably transfected SK-N-MC cells, MTV-LUC reporter (PR-B). Format: cell-based. To be noted: antagonism of 0.1 nmol/l promegestone, 24 hours, LUC reporter, read-out: Progesterone receptor B (PR-B) Potency IC50. On the procedure: as §1, §2, §3

By IC50 is commonly meant the concentration at which inhibition is half-maximal. In the case of `C[C@]12C[C@H](c3ccc(-c4ccc(S(C)(=O)=O)cc4)cc3)C3=C4CCC(=O)C=C4CC[C@H]3[C@@H]1CC[C@@]2(O)C(F)(F)C(F)(F)F` [Example 10, (11β,17β)-17-hydroxy-11-[4′-(methylsulphonyl)biphenyl-4-yl]-17-(pentafluoroethy)estra-4,9-dien-3-one], the “(metabolic) in vivo clearance in humans predicted” value in data set [1] is less than 0.17 mL/min/kg. In addition, the IC50 in data set [2] was 0.011 nM; in data set [3], 0.013 nM.
